Measurements reported in patent publication US12479825B2, “Melanocortin subtype-2 receptor (MC2R) antagonists and uses thereof” (Crinetics Pharmaceuticals, Inc., priority 2019, dated 2025).

target: T1, hMC2 receptor (Homo sapiens, UniProt Q01718); experiment: hMC2 membrane binding assay ([125I]ACTH (1-39) Tyr23, SPA); settings: crude hMC2R membranes from CRE-bla-CHO-K1 cells expressing hMC2 receptor and hMRAP; 0.2 nM [125I]ACTH (1-39) Tyr23; 1.5 hours at room temperature; read-out: MC2R binding potency
T1 construct: host or cells: CRE-bla-CHO-K1 cells, crude membrane fraction
T1 sequence (Q01718 whole entry): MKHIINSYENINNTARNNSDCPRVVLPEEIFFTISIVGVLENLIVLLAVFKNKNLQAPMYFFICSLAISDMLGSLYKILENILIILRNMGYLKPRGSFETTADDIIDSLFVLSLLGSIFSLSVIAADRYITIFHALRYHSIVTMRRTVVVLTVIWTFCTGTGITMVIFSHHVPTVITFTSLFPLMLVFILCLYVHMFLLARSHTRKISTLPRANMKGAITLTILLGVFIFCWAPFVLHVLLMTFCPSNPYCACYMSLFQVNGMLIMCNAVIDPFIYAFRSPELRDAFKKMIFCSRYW
T1 sequence (Q8TCY5 whole entry partner): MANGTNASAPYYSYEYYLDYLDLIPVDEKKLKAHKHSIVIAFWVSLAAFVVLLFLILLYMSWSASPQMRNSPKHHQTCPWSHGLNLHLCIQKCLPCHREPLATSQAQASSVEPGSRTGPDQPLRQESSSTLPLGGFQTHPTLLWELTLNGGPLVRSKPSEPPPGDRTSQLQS
Protocol: Crude membrane fractions are prepared from CRE-bla-CHO-K1 cells stably expressing hMC2 receptor and hMRAP accessory protein (Thermo Fisher). The cells are grown to 85-100% confluence on standard tissue culture dishes in GlutaMax DMEM growth media (Gibco) with following additives: 10% dialyzed FBS (Gemini), 0.1 mM NEAA (Gibco), 25 mM HEPES (Gibco), 5 μg/mL blasticidin (Goldbio), 100 μg/mL zeocin (Invitrogen), 600 μg/mL hygromycin (Goldbio). To prepare membranes, cells are scraped and collected in 1× Dulbecco's phosphate buffered saline (Corning) and then pelleted at 1000 RPM's. The cell pellet is reconstituted in membrane preparation buffer (20 mM HEPES, 6 mM MgCl2 and 1 mM EGTA, protease inhibitor tablets (Pierce) adjusted to pH 7.4), homogenized using a dounce homogenizer, and the resulting membrane fraction is pelleted by centrifugation at 12,000 RPM's. The membrane pellet is resuspended in membrane preparation buffer, snap freezed and stored at −80° C. for later use.
The hMC2 membrane binding assay utilizes the following components: radiolabel [^125I]ACTH (1-39) Tyr23 (PerkinElmer), wheat germ agglutinin coated PVT SPA beads (PerkinElmer), crude hMC2R membranes, and compounds. Briefly hMC2R membranes are incubated with SPA beads in binding assay buffer (50 mM HEPES, 5 mM MgCl2, 1 mM CaCl2, 0.2% BSA, protease inhibitor tablets (Pierce) adjusted to pH7.4) prior to assay initiation. A dose response of compound (the final concentration of compound is typically 0-10,000 nM), SPA membranes, and [^125I]ACTH (1-39) Tyr23 at a final concentration of 0.2 nM is plated in a 96-well assay plate and allowed to incubate 1.5 hours at room temperature. Assay plates are read using a Top Count NXT and Ki values for compounds are determined using a GraphPad Prism 6 non-linear regression analysis.

| Compound | Ki |
| --- | --- |
| CCOc1ncccc1-c1ccc(N2CCN(C(=O)c3ccc(OC)nc3C(F)(F)F)C[C@H]2CC)c(OCCNC)n1 [1-30, [2-({2′-ethoxy-5-[(2R)-2-ethyl-4-[6-methoxy-2-(trifluoromethyl)pyridine-3-carbonyl]piperazin-1-yl]-[2,3′-bipyridin]-6-yl}oxy)ethyl](methyl)amine] | < 10 nM |
| CCOc1ccc(C(=O)N2CCN(c3ccc(-c4cccnc4OCC)nc3O[C@H]3CCNC3)[C@H](CC)C2)c(C(F)(F)F)n1 [1-18, 2′-ethoxy-5-[(2R)-4-[6-ethoxy-2-(trifluoromethyl)pyridine-3-carbonyl]-2-ethylpiperazin-1-yl]-6-[(3S)-pyrrolidin-3-yloxy]-2,3′-bipyridine] | < 10 nM |
| CCOc1ncccc1-c1ccc(N2CC[C@H](Oc3ccc(C(F)(F)F)nc3C#N)C[C@@H]2C2CC2)c(C(=O)N[C@@H]2CCN(C)C2)n1 (mixture of isomers) [2-14, 5-(cis-4-{[2-cyano-6-(trifluoromethyl)pyridin-3-yl]oxy}-2-cyclopropylpiperidin-1-yl)-2′-ethoxy-N-[(3R)-1-methylpyrrolidin-3-yl]-[2,3′-bipyridine]-6-carboxamide] | < 10 nM |
| CCOc1ncccc1-c1ccc(N2CC[C@@H](Oc3ccc(C(F)(F)F)cc3C#N)C[C@H]2CC)c(C(=O)N[C@@H]2CCN(C)C2)n1 (racemic) [2-2, 5-[(cis*-4-[2-cyano-4-(trifluoromethyl)phenoxy]-2-ethylpiperidin-1-yl]-2′-ethoxy-N-[(3R)-1-methylpyrrolidin-3-yl]-[2,3′-bipyridine]-6-carboxamide] | < 10 nM |
| CCOc1ncccc1-c1ccc(N2CCN(C(=O)N3CCC[C@H]3C(F)(F)F)C[C@H]2CC)c(O[C@@H]2CCN(C)C2)n1 [1-4, 2′-ethoxy-5-[(2R)-2-ethyl-4-[(2S)-2-(trifluoromethyl)pyrrolidine-1-carbonyl]piperazin-1-yl]-6-{[(3R)-1-methylpyrrolidin-3-yl]oxy}-2,3′-bipyridine] | 10 to 100 nM |
| CCOc1ncccc1-c1ccc(N2CCN(C(=O)N3CCC[C@H]3C(F)(F)F)C[C@H]2CC)c(O[C@@H]2CCNC2)n1 [1-8, 2′-ethoxy-5-[(2R)-2-ethyl-4-[(2S)-2-(trifluoromethyl)pyrrolidine-1-carbonyl]piperazin-1-yl]-6-[(3R)-pyrrolidin-3-yloxy]-2,3′-bipyridine] | < 10 nM |
| CCOc1ccc(O[C@@H]2CCN(c3ccc(-c4cccnc4OCC)nc3C(=O)N[C@@H]3CCN(C)C3)[C@H](C3CC3)C2)c(C(F)(F)F)n1 (racemic) [2-13, 5-[cis*-2-cyclopropyl-4-{[6-ethoxy-2-(trifluoromethyl)pyridin-3-yl]oxy}piperidin-1-yl]-2′-ethoxy-N-[(3R)-1-methylpyrrolidin-3-yl]-[2,3′-bipyridine]-6-carboxamide] | < 10 nM |
| CCOc1ccccc1-c1ccc(N2CC[C@@H](Oc3ccc(C(F)(F)F)nc3C#N)C[C@H]2C)c(C(=O)N[C@@H]2CCN(C)C2)n1 (racemic) [2-23, 3-(cis*-4-{[2-cyano-6-(trifluoromethyl)pyridin-3-yl]oxy}-2-methylpiperidin-1-yl)-6-(2-ethoxyphenyl)-N-[(3R)-1-methylpyrrolidin-3-yl]pyridine-2-carboxamide] | < 10 nM |
| CCOc1ncccc1-c1ccc(N2CCN(C(=O)c3ccc(F)cc3Cl)C[C@H]2CC)c(-c2nnc(N)[nH]2)n1 [4-3, (R)-(4-(6-(5-amino-4H-1,2,4-triazol-3-yl)-2′-ethoxy-[2,3′-bipyridin]-5-yl)-3-ethylpiperazin-1-yl)(2-chloro-4-fluorophenyl)methanone] | 100 to 1000 nM |
| CCOc1ncccc1-c1ccc(N2CCN(C(=O)c3ccc(F)cc3C(F)(F)F)C[C@H]2CC)c(OCCNC)n1 [1-27, [2-({2′-ethoxy-5-[(2R)-2-ethyl-4-[4-fluoro-2-(trifluoromethyl)benzoyl]piperazin-1-yl]-[2,3′-bipyridin]-6-yl}oxy)ethyl](methyl)amine] | < 10 nM |
| CCOc1ncccc1-c1ccc(N2CCN(C(=O)c3ccc(F)cc3C(F)F)C[C@H]2CC)c(OCCN)n1 [1-13, 2-({5-[(2R)-4-[2-(difluoromethyl)-4-fluorobenzoyl]-2-ethylpiperazin-1-yl]-2′-ethoxy-[2,3′-bipyridin]-6-yl}oxy)ethan-1-amine] | < 10 nM |
| CCOc1ncccc1-c1ccc(N2CC[C@@H](Oc3ccc(Cl)cc3C(F)(F)F)C[C@H]2CC)c(O[C@@H]2CCN(C)C2)n1 (mixture of isomers) [3-9, 5-[rac-(2R,4R)-4-[4-chloro-2-(trifluoromethyl)phenoxy]-2-ethylpiperidin-1-yl]-2′-ethoxy-6-{[(3R)-1-methylpyrrolidin-3-yl]oxy}-2,3′-bipyridine] | 10 to 100 nM |
| CCOc1ncccc1-c1ccc(N2CC[C@H](Oc3ccc(C(F)(F)F)cc3C#N)C[C@H]2C2CC2)c(C(=O)N[C@@H]2CCN(C)C2)n1 (racemic) [2-4, 5-[trans*4-[2-cyano-4-(trifluoromethyl)phenoxy]-2-cyclopropylpiperidin-1-yl]-2′-ethoxy-N-[(3R)-1-methylpyrrolidin-3-yl]-[2,3′-bipyridine]-6-carboxamide] | < 10 nM |
| CCOc1ccc(C(=O)N2CCN(c3ccc(-c4cccnc4OCC)nc3OCCNC)[C@H](CC)C2)c(C(F)(F)F)n1 [1-9, [2-({2′-ethoxy-5-[(2R)-4-[6-ethoxy-2-(trifluoromethyl)pyridine-3-carbonyl]-2-ethylpiperazin-1-yl]-[2,3′-bipyridin]-6-yl}oxy)ethyl](methyl)amine] | < 10 nM |
| CCOc1ncccc1-c1ccc(N2CC[C@H](Oc3ccc(C)cc3C#N)C[C@@H]2C2CC2)c(C(=O)N[C@@H]2CCN(C)C2)n1 (mixture of isomers) [2-16, 5-[cis-4-(2-cyano-4-methylphenoxy)-2-cyclopropylpiperidin-1-yl]-2′-ethoxy-N-[(3R)-1-methylpyrrolidin-3-yl]-[2,3′-bipyridine]-6-carboxamide] | < 10 nM |
| CCOc1ncccc1-c1ccc(N2CC[C@H](Oc3ccc(Cl)cc3C(F)(F)F)C[C@@H]2CC)c(C(=O)N[C@@H]2CCN(C)C2)n1 (single isomer, unassigned) [2-10, 5-[(2S,4S)*-4-[4-chloro-2-(trifluoromethyl)phenoxy]-2-ethylpiperidin-1-yl]-2′-ethoxy-N-[(3R)-1-methylpyrrolidin-3-yl]-[2,3′-bipyridine]-6-carboxamide] | 10 to 100 nM |
| CCOc1ncccc1-c1ccc(N2CC[C@@H](Oc3ccc(C(F)(F)F)nc3C#N)C[C@H]2CC)c(C(=O)N[C@@H]2CCN(C)C2)n1 (single isomer, unassigned) [2-18] | < 10 nM |
| CCOc1ncccc1-c1ccc(N2CC[C@H](Oc3ccc(C(F)(F)F)nc3C#N)C[C@@H]2CC)c(C(=O)N[C@@H]2CCN(C)C2)n1 (mixture of isomers) [2-15, 5-(cis-4-{[2-cyano-6-(trifluoromethyl)pyridin-3-yl]oxy}-2-ethylpiperidin-1-yl)-2′-ethoxy-N-[(3R)-1-methylpyrrolidin-3-yl]-[2,3′-bipyridine]-6-carboxamide] | < 10 nM |
| CCOc1ncccc1-c1ccc(N2CCN(C(=O)c3ccc(Cl)cc3Cl)C[C@H]2CC)c(OCCNC)n1 [1-28, [2-({5-[(2R)-4-(2,4-dichlorobenzoyl)-2-ethylpiperazin-1-yl]-2′-ethoxy-[2,3′-bipyridin]-6-yl}oxy)ethyl](methyl)amine] | < 10 nM |
| CCOc1ncccc1-c1ccc(N2CC[C@H](Oc3ccc(C(F)(F)F)cc3C#N)C[C@@H]2CC)c(C(=O)N[C@@H]2CCN(C)C2)n1 (single isomer, unassigned) [2-12] | 10 to 100 nM |
| CCOc1ccc(C(=O)N2CCN(c3ccc(-c4cccnc4OCC)nc3OC[C@@H](C)N)[C@H](CC)C2)c(C(F)(F)F)n1 [1-19, (2R)-1-({2′-ethoxy-5-[(2R)-4-[6-ethoxy-2-(trifluoromethyl)pyridine-3-carbonyl]-2-ethylpiperazin-1-yl]-[2,3′-bipyridin]-6-yl}oxy)propan-2-amine] | < 10 nM |
| CCOc1ncccc1-c1ccc(N2CCN(C(=O)c3ccc(Cl)cc3C(F)(F)F)C[C@H]2CC)c(O[C@@H]2CCNC2)n1 [1-7, 5-[(2R)-4-[4-chloro-2-(trifluoromethyl)benzoyl]-2-ethylpiperazin-1-yl]-2′-ethoxy-6-[(3R)-pyrrolidin-3-yloxy]-2,3′-bipyridine] | < 10 nM |
| CCOc1ncccc1-c1ccc(C2CCN(c3ccc(C(F)(F)F)nc3C#N)CC2)c(OCCNC)n1 [3-2, 3-(4-{2′-ethoxy-6-[2-(methylamino)ethoxy]-[2,3′-bipyridin]-5-yl}piperidin-1-yl)-6-(trifluoromethyl)pyridine-2-carbonitrile] | < 10 nM |
| CCOc1ncccc1-c1ccc(N2CCN(C(=O)N3CCc4cccc(C#N)c43)C[C@H]2CC)c(OCCN)n1 [1-24, 1-[(3R)-4-[6-(2-aminoethoxy)-2′-ethoxy-[2,3′-bipyridin]-5-yl]-3-ethylpiperazine-1-carbonyl]-2,3-dihydro-1H-indole-7-carbonitrile] | < 10 nM |
